Experimental data: patent US20080064718A1, “INHIBITORS OF PROTEIN TYROSINE KINASE ACTIVITY” (priority 2006, published 2008)
Read-outs that look alike come from different tables or passages of the source.

Columns and labels:
[1] = biological target: T1, c-Met (Homo sapiens, UniProt P08581); assay: c-Met phosphorylation direct ELISA in MKN45 cells; type: cell-based; settings: 3 h treatment
T1 construct: endogenous in cells; host or cells: MKN45 gastric carcinoma cells
Description: Alternatively, the following assay is used to determine inhibition of c-Met phosphorylation.
The c-Met receptor is expressed in numerous cancer cell lines derived from tumors of epithelial origin. In MKN45 gastric carcinoma cells the c-Met gene is amplified, resulting in several-fold overexpression of the receptor and its constitutive activation.
Cell treatments: MKN45 cells are seeded into wells of 96-well plates at a density of 3×10^4 cells/well in RPMI medium supplemented with 10% FBS. […] Inhibitors are added to the medium in triplicate wells at the indicated doses.
After an overnight protein binding incubation at 4° C., lysates are aspirated and wells are blocked for 1 h at 37° C. in TBST supplemented with 5% BSA. Plates are incubated with the primary antibodies anti-phospho-Tyrosine (Millipore, 4G10) diluted 1/15000 in TBST supplemented with 5% BSA for 1 h at room temperature. Plates are washed 3 times on a plate washer (SkanWasher, Molecular Devises), and incubated with the reporter antibody […] (Sigma) diluted 1/15000 in TBST supplemented with 5% BSA, for 1 h at room temperature. Plates are washed 3 times with TBST using on a plate washer and subsequently incubated with chemiluminescent substrate solution (ECL, Roche). Luminescence signal is captured on a Polar Star Optima apparatus (BMG LabTech).
Average values of the triplicate samples are used to prepare IC50 curves using a 4-parameter fit model. These curves are calculated using, for example, GraFit 5.0 software. For assay standardization purpose, an internal control is included on each experimental test plate.

[2] = tested on: DU145; assay: DU145 scattering; type: cell-based; settings: Homo sapiens, DU-145; DU145 cells; read-out: CMET DU145 SCATT HEAL- IC50 UM
[3] = tested on: A549; assay: A549 inhibition of wound healing; type: cell-based; settings: read-out: A549 INHIB WND ING IC50 UM
[4] = biological target: T2, VEGF receptor KDR (Homo sapiens, UniProt P35968); assay: In vitro receptor tyrosine kinase assay, VEGF receptor KDR (DELFIA); type: biochemical; settings: GST-VEGFR2 806-1356, ATP 0.6 uM
T2 construct: made in house; host or cells: Sf9 cells (Spodoptera frugiperda), recombinant baculovirus
From the text: In the case of VEGF receptor KDR a 1.6-kb cDNA corresponding to the catalytic domain of VEGFR2 or KDR (Genbank accession number AF035121 amino acid 806 to 1356) is cloned into the Pst I site of the pDEST20 Gateway vector (Invitrogen) for the production of a GST-tagged version of that enzyme.
The GST-VEGFR2806-1356 protein is expressed in Sf9 cells (Spodoptera frugiperda) upon infection with recombinant baculovirus construct.
The supernatant is loaded onto a GST-agarose column (Sigma) equilibrated with PBS pH 7.3. Following a four column volume (CV) wash with PBS pH 7.3+1% Triton X-100 and 4 CV wash with buffer B (50 mM Tris pH 8.0, 20% glycerol and 100 mM NaCl), bound proteins are step eluted with 5 CV of buffer B supplemented with 5 mM DTT and 15 mM glutathion. […] Final GST-VEGFR2806-1356 protein preparations concentrations are about 0.7 mg/ml with purity approximating 70%.

[5] = biological target: recombinant human c-Met/HGF receptor (Homo sapiens, UniProt P08581); assay: In vitro receptor tyrosine kinase assay, c-Met/HGF receptor (DELFIA)
Sequence of recombinant human c-Met/HGF receptor (P08581 1078-1337): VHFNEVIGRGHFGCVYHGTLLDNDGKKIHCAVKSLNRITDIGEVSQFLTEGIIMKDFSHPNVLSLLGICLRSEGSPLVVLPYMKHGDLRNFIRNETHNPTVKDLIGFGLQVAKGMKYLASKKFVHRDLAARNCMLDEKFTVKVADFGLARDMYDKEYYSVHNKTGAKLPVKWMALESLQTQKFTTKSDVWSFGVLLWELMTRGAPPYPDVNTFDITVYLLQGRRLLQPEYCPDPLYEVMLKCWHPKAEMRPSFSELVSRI

T1 sequence (P08581 25-1390): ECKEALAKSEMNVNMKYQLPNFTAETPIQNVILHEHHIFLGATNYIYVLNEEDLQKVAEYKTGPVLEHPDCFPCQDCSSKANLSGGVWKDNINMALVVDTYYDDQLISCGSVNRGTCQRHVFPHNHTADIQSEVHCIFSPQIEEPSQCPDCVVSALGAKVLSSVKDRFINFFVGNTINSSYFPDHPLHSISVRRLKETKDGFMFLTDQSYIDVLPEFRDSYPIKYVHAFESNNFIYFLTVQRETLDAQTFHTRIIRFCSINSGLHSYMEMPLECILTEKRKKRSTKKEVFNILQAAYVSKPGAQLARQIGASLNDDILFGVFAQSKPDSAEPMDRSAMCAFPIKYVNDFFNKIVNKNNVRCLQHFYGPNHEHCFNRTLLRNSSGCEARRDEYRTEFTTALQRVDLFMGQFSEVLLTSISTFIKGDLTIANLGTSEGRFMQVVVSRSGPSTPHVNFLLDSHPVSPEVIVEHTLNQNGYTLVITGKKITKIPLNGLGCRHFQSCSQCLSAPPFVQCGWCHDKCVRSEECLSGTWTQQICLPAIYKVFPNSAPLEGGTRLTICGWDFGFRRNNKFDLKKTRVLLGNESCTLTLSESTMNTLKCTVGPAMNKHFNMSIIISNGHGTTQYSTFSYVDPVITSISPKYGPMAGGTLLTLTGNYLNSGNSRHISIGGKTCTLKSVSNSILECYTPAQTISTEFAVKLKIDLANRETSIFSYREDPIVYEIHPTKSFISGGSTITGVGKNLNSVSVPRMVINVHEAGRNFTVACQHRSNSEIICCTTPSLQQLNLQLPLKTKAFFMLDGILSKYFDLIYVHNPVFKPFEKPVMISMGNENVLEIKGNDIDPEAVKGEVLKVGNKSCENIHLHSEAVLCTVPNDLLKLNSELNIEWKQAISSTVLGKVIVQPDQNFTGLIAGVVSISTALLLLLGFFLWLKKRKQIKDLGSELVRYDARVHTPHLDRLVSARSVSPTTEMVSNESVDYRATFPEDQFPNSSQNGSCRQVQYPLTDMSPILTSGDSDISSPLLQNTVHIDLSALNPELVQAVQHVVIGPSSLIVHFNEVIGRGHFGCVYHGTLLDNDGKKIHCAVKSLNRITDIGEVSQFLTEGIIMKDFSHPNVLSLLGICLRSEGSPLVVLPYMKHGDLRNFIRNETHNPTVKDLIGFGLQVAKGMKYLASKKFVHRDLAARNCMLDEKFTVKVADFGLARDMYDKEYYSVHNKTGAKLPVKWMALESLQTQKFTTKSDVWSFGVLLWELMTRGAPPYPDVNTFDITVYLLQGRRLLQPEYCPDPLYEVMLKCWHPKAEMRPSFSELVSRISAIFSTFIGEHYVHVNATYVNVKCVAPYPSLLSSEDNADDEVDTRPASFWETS
T2 sequence (P35968 806-1356): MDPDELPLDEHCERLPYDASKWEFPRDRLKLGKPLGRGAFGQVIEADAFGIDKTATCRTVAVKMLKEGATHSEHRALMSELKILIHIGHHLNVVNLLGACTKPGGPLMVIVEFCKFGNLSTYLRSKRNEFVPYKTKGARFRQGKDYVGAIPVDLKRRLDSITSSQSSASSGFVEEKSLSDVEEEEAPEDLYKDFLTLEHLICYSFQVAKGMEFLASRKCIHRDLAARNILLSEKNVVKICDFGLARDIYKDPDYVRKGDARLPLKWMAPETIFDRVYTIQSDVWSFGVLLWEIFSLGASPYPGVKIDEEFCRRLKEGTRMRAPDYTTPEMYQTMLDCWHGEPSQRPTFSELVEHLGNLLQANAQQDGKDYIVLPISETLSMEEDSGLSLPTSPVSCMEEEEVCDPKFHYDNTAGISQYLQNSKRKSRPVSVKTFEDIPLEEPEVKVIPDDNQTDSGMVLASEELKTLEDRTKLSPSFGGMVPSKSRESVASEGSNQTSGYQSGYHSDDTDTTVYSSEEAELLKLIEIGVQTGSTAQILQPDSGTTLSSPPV

| SMILES | IC50 [1] [nM] | IC50 [2] [nM] | IC50 ([3]; Homo sapiens, A549 cells) [nM] | IC50 ([4]; read-out: VEGFR IC50) [nM] | IC50 [5] [nM] | IC50 ([3]; Homo sapiens, A549, A549 cells) [nM] | IC50 ([3]; A549 cells) [nM] | IC50 ([4]; read-out: VEGFR (IC50)) [nM] |
| --- | --- | --- | --- | --- | --- | --- | --- | --- |
| CN(C)CCOC(=O)N1CC=C(c2cc3nccc(Oc4ccc(NC(=O)N5CCN(c6ccccc6)C5=O)cc4F)c3s2)CC1 | < 250 | 250 to 500 | 250 to 500 | < 250 | < 250 | – | – | – |
| C=CCN1CCN(C(=O)Nc2ccc(Oc3ccnc4cc(-c5cn(CC)cn5)sc34)c(F)c2)C1=O | 250 to 500 | 250 to 500 | 250 to 500 | < 250 | < 250 | – | – | – |
| CS(=O)(=O)c1ccc(-c2cc3nccc(Oc4ccc(NC(=O)c5cnn(-c6ccccc6)c5C(F)(F)F)cc4F)c3s2)nc1 | – | 250 to 500 | < 250 | > 1000 | < 250 | – | – | – |
| Cc1c(C(=O)Nc2ccc(Oc3ccnc4cc(-c5cn(C)cn5)sc34)c(F)c2)cnn1-c1ccccc1 | – | > 1000 | – | > 1000 | – | 250 to 500 | – | – |
| Cn1cnc(-c2cc3nccc(Oc4ccc(NC(=O)c5cnn(-c6ccccc6)c5)cc4F)c3s2)c1 [drawing 192] | – | > 1000 | – | > 1000 | – | – | 250 to 500 | – |
| Cn1ccnc1-c1cc2nccc(Oc3ccc(NC(=O)c4ncc(-c5ccccc5)s4)cc3F)c2s1 | – | – | – | > 1000 | > 1000 | – | – | – |
| COCCN(C)Cc1ccc(-c2cc3nccc(Oc4ccc(NC(=O)NNc5ccccc5)cc4F)c3s2)cc1 | < 250 | > 1000 | 250 to 500 | > 1000 | 250 to 500 | – | – | – |
| Cn1cnc(-c2cc3nccc(Oc4ccc(NC(CC(=O)Nc5ccccc5)C(F)(F)F)cc4F)c3s2)c1 (stereo not shown) [Compound 8, 4,4,4-Trifluoro-3-(3-fluoro-4-(2-(1-methyl-1H-imidazol-4-yl)thieno[3,2-b]pyridin-7-yloxy)phenylamino)-N-phenylbutanamide] | – | – | – | – | – | – | – | < 250 |
| COC[C@H](C)NCc1ccc(-c2cc3nccc(Oc4ccc(NC(=O)N5CCN(c6ccccc6)C5=O)cc4F)c3s2)cc1 | < 250 | < 250 | < 250 | < 250 | < 250 | – | – | – |
| O=C(Nc1ccc(Oc2ccnc3cc(-c4cccc[n+]4[O-])sc23)c(F)c1)N1CCN(c2ccc(F)cc2)C1=O | < 250 | < 250 | < 250 | < 250 | < 250 | – | – | – |
| Cn1ccnc1-c1cc2nccc(Oc3ccc(NC(=O)c4ccc(-c5ccccc5)cc4F)cc3F)c2s1 | – | – | – | > 1000 | < 250 | – | – | – |
| CN(C)C(=O)c1ccc(-c2cc3nccc(Oc4ccc(NC(=O)c5cnn(-c6ccccc6)c5C(F)(F)F)cc4F)c3s2)nc1 | – | 250 to 500 | – | > 1000 | – | 250 to 500 | – | – |
| Cn1cnc(-c2cc3nccc(Oc4ccc(NC(=O)c5cnn(-c6ccccc6)c5C(F)(F)F)cc4F)c3s2)c1 | 500 to 1000 | > 1000 | 250 to 500 | > 1000 | < 250 | – | – | – |
| COC[C@H](C)NCc1cccc(-c2cc3nccc(Oc4ccc(NC(=O)N5CCN(c6ccccc6)C5=O)cc4F)c3s2)c1 | < 250 | 250 to 500 | 250 to 500 | < 250 | < 250 | – | – | – |
| CS(=O)(=O)c1ccc(-c2cc3nccc(Oc4ccc(NC(=O)N5CCN(c6ccccc6)C5=O)cc4F)c3s2)cc1 | < 250 | – | – | 250 to 500 | 250 to 500 | – | – | – |
| CN(C)C(=O)c1ccc(-c2cc3nccc(Oc4ccc(NC(=O)N5CCN(c6ccccc6)C5=O)cc4F)c3s2)cc1 | < 250 | 250 to 500 | < 250 | < 250 | < 250 | – | – | – |
| CS(=O)(=O)CCNCc1ccc(-c2cc3nccc(Oc4ccc(NC(=O)c5cnn(-c6ccccc6)c5C(F)(F)F)cc4F)c3s2)cc1 | – | > 1000 | – | > 1000 | – | > 1000 | – | – |
